Assays:
SaFrmB = molecular target: T1, SaFrmB (Staphylococcus aureus, UniProt A0A0H3KFB7); test: Esterase substrate specificity, fluorogenic SAR library kinetics; type: biochemical; details: for kcat/kuncat: SaFrmB; for Km: SaFrmB 15 µg/mL, pH 7.5, 37°C
T1 construct: made in house; host or cells: E. coli BL21 (DE3)
T1 sequence (A0A0H3KFB7 1-253): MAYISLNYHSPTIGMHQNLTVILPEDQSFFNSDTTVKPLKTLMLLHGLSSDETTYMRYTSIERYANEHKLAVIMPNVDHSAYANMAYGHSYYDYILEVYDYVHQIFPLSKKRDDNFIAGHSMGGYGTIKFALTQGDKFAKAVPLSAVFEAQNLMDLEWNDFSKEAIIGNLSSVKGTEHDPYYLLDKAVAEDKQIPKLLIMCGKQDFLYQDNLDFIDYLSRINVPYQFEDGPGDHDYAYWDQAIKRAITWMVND
Experimental: (§1) Kinetic measurements were performed according to [White et al., 2018] with minor variation. Lyophilized human and mouse sera were resuspended according to manufacturer instructions in highly pure, filtered water at protein concentrations of 85 mg/mL and 70 mg/mL, respectively. One milliliter of resuspended serum was added to a 24 mL mastermix for a final concentration of 31.25 mM Tris pH 7.5, 312.5 mM NaCl, 1.25 mM MgCl2, 12.5% glycerol, and 3.4 mg/mL or 2.8 mg/mL protein for human and mouse serum, respectively. For purified proteins, 5 mL of a 75 µg/mL stock was added to yield a 20 mL mastermix containing 31.25 mM Tris pH 7.5, 312.5 mM NaCl, 1.25 mM MgCl2, 12.5% glycerol, and 18.75 µg/mL protein. Mastermix was stored on ice when not in use. Twenty microliters of mastermix was transferred to a black, 96-well half area microplate (Corning, CLS3993) and prewarmed at 37°C. Fluorogenic substrates were prepared as 10 mM stock solutions in 100% DMSO and were diluted in water to a starting concentration of 500 µM. Enzyme catalyzed substrate hydrolysis was initiated by addition of 5 µL substrate dilution in technical duplicate to the prewarmed serum or protein solution. Final assay concentrations were as follows: 25 mM Tris pH 7.5, 250 mM NaCl, 1 mM MgCl2, 10% glycerol, and protein at a concentration of 2.72 mg/mL (human serum), 2.24 mg/mL (mouse serum), or 15 µg/mL (FrmB, GloB). The resulting change in fluorescence (λex = 485 nm, λem = 520 nm) was followed for 15 min at 37°C, collecting data every 30 s on a FLUOstar Omega microplate reader (BMG Labtech). Fluorescence measurements were converted to molar concentrations using a fluorescein standard curve (2.5 nmol–0.6 pmol). The initial rates of reaction were measured three independent times with two technical replicates per measurement and fit to a line using GraphPad Prism (GraphPad Software, La Jolla, CA). Initial rates of reaction were plotted versus the concentration of substrate and fit to a standard Michaelis–Menten equation (v = Vmax[S]/(Km + [S])), yielding estimates of Vmax and Km. Values for kcat and kcat/Km were calculated based on amount of enzyme added when purified enzymes were used.

SaGloB = molecular target: T2, SaGloB (Staphylococcus aureus, UniProt P0DY75); test: as above; type: biochemical; details: SaGloB; for kcat/kuncat: normalised to uncatalysed hydrolysis rate; for Km: fluorogenic ester substrate
T2 sequence (P0DY75 1-207): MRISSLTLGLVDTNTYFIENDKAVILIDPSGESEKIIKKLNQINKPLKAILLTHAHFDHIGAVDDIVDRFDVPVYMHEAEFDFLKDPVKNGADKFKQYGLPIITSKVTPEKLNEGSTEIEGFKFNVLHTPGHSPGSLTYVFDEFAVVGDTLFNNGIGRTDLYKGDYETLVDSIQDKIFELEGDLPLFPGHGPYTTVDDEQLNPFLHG
Experimental: as §1

human sera = test: Esterase substrate specificity, fluorogenic SAR library kinetics in serum; type: in vitro ADME
Experimental: as §1

mouse sera = test: as above; type: in vitro ADME
Experimental: as §1

| SMILES | kcat/kuncat (SaFrmB) | kcat/kuncat (SaGloB) | Km (human sera) [µM] | Vmax (human sera) [pmol*min-1*mg sera-1] | Km (mouse sera) [µM] | Km (SaFrmB) [µM] | Km (SaGloB) [µM] | Vmax (mouse sera) [pmol*min-1*mg sera-1] |
| --- | --- | --- | --- | --- | --- | --- | --- | --- |
| CCCC(=O)OCOc1ccc2c(c1)Oc1cc(OCOC(=O)CCC)ccc1C21OC(=O)c2ccccc21 [1C] | 7.99 103 | 21.2 103 | 36.2 | 1.06 | > 50 |  |  |  |
| CSCC(=O)OCOc1ccc2c(c1)Oc1cc(OCOC(=O)CSC)ccc1C21OC(=O)c2ccccc21 [1S] |  | 11.4 103 | 71.8 | 30.5 | > 50 | > 50 |  |  |
| CCCCC(=O)OCOc1ccc2c(c1)Oc1cc(OCOC(=O)CCCC)ccc1C21OC(=O)c2ccccc21 [2C] | 4.74 103 | 17.2 103 | 71.5 | 0.356 | > 50 |  |  |  |
| CCOCC(=O)OCOc1ccc2c(c1)Oc1cc(OCOC(=O)COCC)ccc1C21OC(=O)c2ccccc21 [2O] | 1.08 103 | 19.4 103 | 40.4 | 43.8 | > 50 |  |  |  |
| CCSCC(=O)OCOc1ccc2c(c1)Oc1cc(OCOC(=O)CSCC)ccc1C21OC(=O)c2ccccc21 [2S] |  |  | > 50 |  | > 50 | > 50 | > 50 |  |
| CCCOCC(=O)OCOc1ccc2c(c1)Oc1cc(OCOC(=O)COCCC)ccc1C21OC(=O)c2ccccc21 [3O] | 0.911 103 | 4.91 103 | 22.2 | 11.7 | > 50 |  |  |  |
| CCCSCC(=O)OCOc1ccc2c(c1)Oc1cc(OCOC(=O)CSCCC)ccc1C21OC(=O)c2ccccc21 [3S] |  |  | 74.3 | 8.80 | > 50 | > 50 | > 50 |  |
| COCCC(=O)OCOc1ccc2c(c1)Oc1cc(OCOC(=O)CCOC)ccc1C21OC(=O)c2ccccc21 [4O] | 1.40 103 | 8.42 103 | 44.5 | 5.88 | > 50 |  |  |  |
| CSCCC(=O)OCOc1ccc2c(c1)Oc1cc(OCOC(=O)CCSC)ccc1C21OC(=O)c2ccccc21 [4S] | 1.40 103 |  | 27.9 | 3.81 | > 50 |  | > 50 |  |
| CCSCCC(=O)OCOc1ccc2c(c1)Oc1cc(OCOC(=O)CCSCC)ccc1C21OC(=O)c2ccccc21 [5S] | 0.910 103 | 4.35 103 | 31 | 0.690 | > 50 |  |  |  |
| CC(C)CCC(=O)OCOc1ccc2c(c1)Oc1cc(OCOC(=O)CCC(C)C)ccc1C21OC(=O)c2ccccc21 [6C] |  | 12.7 103 | > 50 |  | 53.5 | > 50 |  | 17.6 |
| CC(C)OCC(=O)OCOc1ccc2c(c1)Oc1cc(OCOC(=O)COC(C)C)ccc1C21OC(=O)c2ccccc21 [6O] | 1.49 103 | 5.76 103 | 54.6 | 11.7 | 11.5 |  |  | 437 |
| CC(C)SCC(=O)OCOc1ccc2c(c1)Oc1cc(OCOC(=O)CSC(C)C)ccc1C21OC(=O)c2ccccc21 [6S] | 2.44 103 | 12.9 103 | > 50 |  | > 50 |  |  |  |
| CCC(C)C(=O)OCOc1ccc2c(c1)Oc1cc(OCOC(=O)C(C)CC)ccc1C21OC(=O)c2ccccc21 (stereo not drawn) [7C] |  |  | 64.2 | 0.441 | > 50 | > 50 | > 50 |  |
| COC(C)C(=O)OCOc1ccc2c(c1)Oc1cc(OCOC(=O)C(C)OC)ccc1C21OC(=O)c2ccccc21 (stereo not drawn) [7O] | 3.31 103 | 23.6 103 | 30.3 | 5.73 | 25.9 |  |  | 929 |
| CSC(C)C(=O)OCOc1ccc2c(c1)Oc1cc(OCOC(=O)C(C)SC)ccc1C21OC(=O)c2ccccc21 (stereo not drawn) [7S] |  | 7.86 103 | 30.2 | 1.60 | > 50 | > 50 |  |  |
| CCCC(C)C(=O)OCOc1ccc2c(c1)Oc1cc(OCOC(=O)C(C)CCC)ccc1C21OC(=O)c2ccccc21 (stereo not drawn) [8C] |  | 79.1 103 | > 50 |  | > 50 | > 50 |  |  |
| CCOC(C)C(=O)OCOc1ccc2c(c1)Oc1cc(OCOC(=O)C(C)OCC)ccc1C21OC(=O)c2ccccc21 (stereo not drawn) [8O] | 1.38 103 | 6.80 103 | 27.7 | 3.93 | > 50 |  |  |  |
| CCSC(C)C(=O)OCOc1ccc2c(c1)Oc1cc(OCOC(=O)C(C)SCC)ccc1C21OC(=O)c2ccccc21 (stereo not drawn) [8S] |  | 9.01 103 | > 50 |  | > 50 | > 50 |  |  |
| CCC(OC)C(=O)OCOc1ccc2c(c1)Oc1cc(OCOC(=O)C(CC)OC)ccc1C21OC(=O)c2ccccc21 (stereo not drawn) [9O] |  | 14.6 103 | 112 | 4.35 | > 50 | > 50 |  |  |
| CCC(SC)C(=O)OCOc1ccc2c(c1)Oc1cc(OCOC(=O)C(CC)SC)ccc1C21OC(=O)c2ccccc21 (stereo not drawn) [9S] |  |  | > 50 |  | > 50 | > 50 | > 50 |  |
| CCC(C)(C)C(=O)OCOc1ccc2c(c1)Oc1cc(OCOC(=O)C(C)(C)CC)ccc1C21OC(=O)c2ccccc21 [10C] |  |  | > 50 |  | > 50 | > 50 | > 50 |  |
| COC(C)(C)C(=O)OCOc1ccc2c(c1)Oc1cc(OCOC(=O)C(C)(C)OC)ccc1C21OC(=O)c2ccccc21 [10O] | 4.97 103 |  | 63.3 | 1.46 | > 50 |  | > 50 |  |
| O=C(CCc1ccccc1)OCOc1ccc2c(c1)Oc1cc(OCOC(=O)CCc3ccccc3)ccc1C21OC(=O)c2ccccc21 [11C] |  |  | > 50 |  | > 50 | > 50 | > 50 |  |
| O=C(COc1ccccc1)OCOc1ccc2c(c1)Oc1cc(OCOC(=O)COc3ccccc3)ccc1C21OC(=O)c2ccccc21 [11O] |  |  | > 50 |  | > 50 | > 50 | > 50 |  |
| O=C(CSc1ccccc1)OCOc1ccc2c(c1)Oc1cc(OCOC(=O)CSc3ccccc3)ccc1C21OC(=O)c2ccccc21 [11S] |  |  | > 50 |  | > 50 | > 50 | > 50 |  |
| C=CCOC(C)C(=O)OCOc1ccc2c(c1)Oc1cc(OCOC(=O)C(C)OCC=C)ccc1C21OC(=O)c2ccccc21 (stereo not drawn) [12O] |  | 1.28 103 | 42.2 | 4.00 | > 50 | > 50 |  |  |
| C=CCSC(C)C(=O)OCOc1ccc2c(c1)Oc1cc(OCOC(=O)C(C)SCC=C)ccc1C21OC(=O)c2ccccc21 (stereo not drawn) [12S] |  |  | > 50 |  | > 50 | > 50 | > 50 |  |

Reference: article PMC8318587, “Structure-guided microbial targeting of antistaphylococcal prodrugs” (eLife, 2021)
